Reference: US20250163104A1, “MACROCYCLIC IMMUNOMODULATORS” (priority 2021, published 2025)
Where a SMILES comes first, the peptide text is derived from it. Bridges are numbered along the chain shown (N, C = ends). [ ]: non-standard residue; d: D form. The star is where a group is joined. ξ: configuration not given here. Bip(3'-COOH) = N[C@@H](Cc1ccc(-c2cccc(C(=O)O)c2)cc1)C(=O)O; Phe(3,4,5-F3) = N[C@@H](Cc1cc(F)c(F)c(F)c1)C(=O)O; Phe(4-COOH) = N[C@@H](Cc1ccc(C(=O)O)cc1)C(=O)O; Bip = N[C@@H](Cc1ccc(-c2ccccc2)cc1)C(=O)O; Phe(3-Me) = Cc1cccc(C[C@H](N)C(=O)O)c1; 4Pal = N[C@@H](Cc1ccncc1)C(=O)O; Cha = N[C@@H](CC1CCCCC1)C(=O)O; Ile(3ξ) = CCC(C)[C@H](N)C(=O)O; dCha = N[C@H](CC1CCCCC1)C(=O)O; Carboxymethyl = O=C(O)C*; Orn = NCCC[C@H](N)C(=O)O; Pra = C#CC[C@H](N)C(=O)O; Dab = NCC[C@H](N)C(=O)O; Dap = NC[C@H](N)C(=O)O

These compounds were tested against T1, human PD-1 / PD-L1-Ig binding on Jurkat cell line over-expressing human PD-1 (Jurkat-PD-1) (Homo sapiens, UniProt Q15116) (assay: Jurkat-PD-1 Cell Binding High-Content Screening Assay (CBA)). Conditions: Jurkat-PD-1 cells, PE-labeled PD-L1-Ig 20 nM final; read-out: Jurkat HPD1_PDL1 IC50.
T1 construct: expressed in transfected cells; host or cells: Jurkat
T1 sequence (Q15116 25-288): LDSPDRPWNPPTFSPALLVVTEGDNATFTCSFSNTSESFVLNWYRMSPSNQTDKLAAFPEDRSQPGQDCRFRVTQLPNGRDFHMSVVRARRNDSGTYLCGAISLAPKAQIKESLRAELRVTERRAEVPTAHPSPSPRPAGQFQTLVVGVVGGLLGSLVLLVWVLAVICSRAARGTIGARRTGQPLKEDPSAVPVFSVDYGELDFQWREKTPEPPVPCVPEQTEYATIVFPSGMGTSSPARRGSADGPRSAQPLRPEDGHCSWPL
Assay type: cell-based
Method: Example 3. Jurkat-PD-1 Cell Binding High-Content Screening Assay (CBA)
Jurkat-PD-1 Cell Binding High-Content Screening Assay (CBA). Phycoerythrin (PE) was covalently linked to the Ig epitope tag of human PD-L1-Ig and fluorescently-labeled PD-L1-Ig was used for binding studies with a Jurkat cell line over-expressing human PD-1 (Jurkat-PD-1). Briefly, 8×10^3 Jurkat-hPD-1 cells were seeded into 384 well plates in 20 μl of DMEM supplemented with 10% fetal calf serum. 100 nL of compound was added to cells followed by incubation at 37° C. for 2 h. Then, 5 μl of PE-labeled PD-L1-Ig (20 nM final), diluted in DMEM supplemented with 10% fetal calf serum. After 1 hour incubation, cells were fixed with 4% paraformaldehyde in dPBS containing 10 μg/ml Hoechst 33342 and then washed 3x in 100 μl dPBS. Data was collected and processed using a Cell Insight NXT High Content Imager and associated software.

SMILES | IC50 [nM]
CC(C)[C@@H]1NC(=O)[C@H](Cc2c[nH]c3ccccc23)NC(=O)[C@H](CC(=O)O)NC(=O)[C@H](Cc2ccncc2)NC(=O)[C@H](CN)NC(=O)CSC[C@@H](C(=O)N[C@@H](C)C(N)=O)NC(=O)[C@H]([C@@H](C)O)NC(=O)[C@H](C(C)C)NC(=O)[C@H](CC2CCCCC2)NC(=O)[C@H](CCN)NC(=O)[C@@H](CC2CCCCC2)NC(=O)[C@H](CCCN)NC(=O)[C@H](C(C)C)NC(=O)[C@H](Cc2ccc(-c3ccccc3)cc2)NC1=O [Compound 1638] ({CH2CO}-[Dap][4Pal]DWV[Bip]V[Orn][dCha][Dab][Cha]VTCA-NH2; thioether N-14) | 28.6
CC(C)[C@@H]1NC(=O)[C@H](Cc2c[nH]c3ccccc23)NC(=O)[C@H](CC(=O)O)NC(=O)[C@H](Cc2ccc(OCC(=O)O)cc2)NC(=O)[C@H](CN)NC(=O)CSC[C@@H](C(=O)N[C@@H](C)C(N)=O)NC(=O)[C@H]([C@@H](C)O)NC(=O)[C@H](C(C)C)NC(=O)[C@H](CC2CCCCC2)NC(=O)[C@H](CCN)NC(=O)[C@@H](Cc2ccccc2)NC(=O)[C@H](CCCN)NC(=O)[C@H](CCC(=O)O)NC(=O)[C@H](Cc2ccc(-c3ccccc3)cc2)NC1=O [Compound 1436] ({CH2CO}-[Dap]Y(Carboxymethyl)DWV[Bip]E[Orn][dF][Dab][Cha]VTCA-NH2; thioether N-14) | 22.8
CC(C)C[C@@H]1NC(=O)[C@H](CCCNC(=N)N)NC(=O)[C@@H](CC(C)C)NC(=O)[C@@H](CCCCN)NC(=O)[C@H](CCCNC(=N)N)NC(=O)[C@H](Cc2ccc(-c3ccccc3)cc2)NC(=O)[C@H](C(C)C)NC(=O)[C@H](Cc2c[nH]c3ccccc23)NC(=O)[C@H](CC(=O)O)NC(=O)[C@H](Cc2ccc(O)cc2)NC(=O)[C@H](CC(N)=O)NC(=O)CSC[C@@H](C(=O)N[C@@H](C)C(N)=O)NC(=O)[C@H]([C@@H](C)O)NC(=O)[C@H](C(C)C)NC1=O [Compound 1013] ({CH2CO}-NYDWV[Bip]R[dK][dL]RLVTCA-NH2; thioether N-14) | 129
CCC(C)[C@@H]1NC(=O)[C@H](Cc2ccc(-c3ccccc3)cc2)NC(=O)[C@H](C(C)C)NC(=O)[C@H](Cc2c[nH]c3ccccc23)NC(=O)[C@H](CC(=O)O)NC(=O)[C@H](Cc2ccc(-c3cccc(C(=O)O)c3)cc2)NC(=O)[C@H](CC(N)=O)NC(=O)CSC[C@@H](C(=O)N[C@@H](C)C(N)=O)NC(=O)[C@H]([C@@H](C)O)NC(=O)[C@H](C(C)C)NC(=O)[C@H](CC2CCCCC2)NC(=O)[C@H](CCN)NC(=O)[C@@H](CC(C)C)NC(=O)[C@H](CCCN)NC1=O (stereo partly drawn) [Compound 2217] ({CH2CO}-N[Bip(3'-COOH)]DWV[Bip][Ile(3ξ)][Orn][dL][Dab][Cha]VTCA-NH2; thioether N-14) | 16.8
CC(C)C[C@H]1NC(=O)[C@H](CCCN)NC(=O)[C@H](CCC(=O)O)NC(=O)[C@H](Cc2ccc(-c3ccccc3)cc2)NC(=O)[C@H](C(C)C)NC(=O)[C@H](Cc2c[nH]c3ccccc23)NC(=O)[C@H](CC(=O)O)NC(=O)[C@H](Cc2ccc(OCC(=O)O)cc2)NC(=O)[C@H](CN)NC(=O)CSC[C@@H](C(=O)N[C@@H](C)C(N)=O)NC(=O)[C@H]([C@@H](C)O)NC(=O)[C@H](C(C)C)NC(=O)[C@H](Cc2cc(F)c(F)c(F)c2)NC(=O)[C@H](CCN)NC1=O [Compound 1480] ({CH2CO}-[Dap]Y(Carboxymethyl)DWV[Bip]E[Orn][dL][Dab][Phe(3,4,5-F3)]VTCA-NH2; thioether N-14) | 150
CC(C)C[C@@H]1NC(=O)[C@H](CCN)NC(=O)[C@@H](CC(C)C)NC(=O)[C@H](CC(N)=O)NC(=O)[C@H](C(C)C)NC(=O)[C@H](Cc2ccc(-c3ccccc3)cc2)NC(=O)[C@H](C(C)C)NC(=O)[C@H](Cc2c[nH]c3ccccc23)NC(=O)[C@H](CC(=O)O)NC(=O)[C@H](Cc2ccc(O)cc2)NC(=O)[C@H](CC(N)=O)NC(=O)CSC[C@@H](C(=O)N[C@@H](C)C(N)=O)NC(=O)[C@H]([C@@H](C)O)NC(=O)[C@H](C(C)C)NC1=O [Compound 1036] ({CH2CO}-NYDWV[Bip]VN[dL][Dab]LVTCA-NH2; thioether N-14) | 26.4
C#CC[C@H](NC(=O)[C@H](CCN)NC(=O)[C@@H]1CSCC(=O)N[C@@H](CN)C(=O)N[C@@H](Cc2ccc(OCC(=O)O)cc2)C(=O)N[C@@H](CC(=O)O)C(=O)N[C@@H](Cc2cccc(C)c2)C(=O)N[C@@H](Cc2ccc(OCC(=O)O)cc2)C(=O)N[C@@H](Cc2ccc(-c3ccccc3)cc2)C(=O)N[C@@H](Cc2ccc(OCC(=O)O)cc2)C(=O)N[C@@H](CCCN)C(=O)N[C@H](CC(C)C)C(=O)N[C@@H](CCN)C(=O)N[C@@H](CC2CCCCC2)C(=O)N[C@@H](C(C)C)C(=O)N[C@@H](CO)C(=O)N1)C(N)=O [Compound 1861] ({CH2CO}-[Dap]Y(Carboxymethyl)D[Phe(3-Me)]Y(Carboxymethyl)[Bip]Y(Carboxymethyl)[Orn][dL][Dab][Cha]VSC[Dab][Pra]-NH2; thioether N-14) | 10.8
CC(C)C[C@H]1NC(=O)[C@H](CCCN)NC(=O)[C@H](CCC(=O)O)NC(=O)[C@H](Cc2ccc(-c3ccccc3)cc2)NC(=O)[C@H](C(C)C)NC(=O)[C@H](Cc2cccc(C(F)(F)F)c2)NC(=O)[C@H](CC(=O)O)NC(=O)[C@H](Cc2ccc(OCC(=O)O)cc2)NC(=O)[C@H](Cc2ccncc2)NC(=O)CSC[C@@H](C(=O)N[C@@H](C)C(N)=O)NC(=O)[C@H]([C@@H](C)O)NC(=O)[C@H](C(C)C)NC(=O)[C@H](CC2CCCCC2)NC(=O)[C@H](CCN)NC1=O [Compound 1460] | 11.2

Further compounds by falling IC50, results first:

IC50 [nM] | SMILES
67.1 | CC(C)C[C@@H]1NC(=O)[C@H](CCCNC(=N)N)NC(=O)[C@@H](CC(C)C)NC(=O)[C@H](CCN)NC(=O)[C@H](CCCNC(=N)N)NC(=O)[C@H](Cc2ccc(-c3ccccc3)cc2)NC(=O)[C@H](C(C)C)NC(=O)[C@H](Cc2c[nH]c3ccccc23)NC(=O)[C@H](CC(=O)O)NC(=O)[C@H](Cc2ccc(O)cc2)NC(=O)[C@H](CC(N)=O)NC(=O)CSC[C@@H](C(=O)N[C@@H](C)C(N)=O)NC(=O)[C@H]([C@@H](C)O)NC(=O)[C@H](C(C)C)NC1=O [Compound 1011] ({CH2CO}-NYDWV[Bip]R[Dab][dL]RLVTCA-NH2; thioether N-14)
42.5 | CC(C)C[C@@H]1NC(=O)[C@H](Cc2c[nH]c3ccccc23)NC(=O)[C@H](CC(=O)O)NC(=O)[C@H](Cc2ccc(O)cc2)NC(=O)[C@H](Cc2ccccc2)NC(=O)CSC[C@@H](C(=O)N[C@@H](C)C(N)=O)NC(=O)[C@H](CO)NC(=O)[C@H](C(C)C)NC(=O)[C@H](CC(C)C)NC(=O)[C@H](CC(N)=O)NC(=O)[C@@H](C)NC(=O)[C@H](CCCN)NC(=O)[C@H](C(C)C)NC(=O)[C@H](Cc2ccc(-c3ccccc3)cc2)NC1=O [Compound 1108] ({CH2CO}-FYDWL[Bip]V[Orn][dA]NLVSCA-NH2; thioether N-14)
26.1 | CC(C)C[C@H]1NC(=O)[C@H](CCCN)NC(=O)[C@H](CCC(=O)O)NC(=O)[C@H](Cc2ccc(-c3ccccc3)cc2)NC(=O)[C@H](C(C)C)NC(=O)[C@H](Cc2ccc(O)cc2)NC(=O)[C@H](CC(=O)O)NC(=O)[C@H](Cc2ccc(OCC(=O)O)cc2)NC(=O)[C@H](CN)NC(=O)CSC[C@@H](C(=O)N[C@@H](C)C(N)=O)NC(=O)[C@H]([C@@H](C)O)NC(=O)[C@H](C(C)C)NC(=O)[C@H](CC2CCCCC2)NC(=O)[C@H](CCN)NC1=O [Compound 2141] ({CH2CO}-[Dap]Y(Carboxymethyl)DYV[Bip]E[Orn][dL][Dab][Cha]VTCA-NH2; thioether N-14)
22.7 | CC[C@H](C)[C@@H]1NC(=O)[C@H](Cc2ccc(-c3ccccc3)cc2)NC(=O)[C@H](C(C)C)NC(=O)[C@H](Cc2c[nH]c3ccccc23)NC(=O)[C@H](CC(=O)O)NC(=O)[C@H](Cc2ccc(O)cc2)NC(=O)[C@H](CC(N)=O)NC(=O)CSC[C@@H](C(=O)N[C@@H](C)C(N)=O)NC(=O)[C@H]([C@@H](C)O)NC(=O)[C@H](C(C)C)NC(=O)[C@H](CC2CCCCC2)NC(=O)[C@H](CCCNC(=N)N)NC(=O)[C@@H](CC(C)C)NC(=O)[C@H](CCCN)NC1=O [Compound 1147] ({CH2CO}-NYDWV[Bip]I[Orn][dL]R[Cha]VTCA-NH2; thioether N-14)
22.6 | CC(C)C[C@H]1NC(=O)[C@H](CCCN)NC(=O)[C@H](CCC(=O)O)NC(=O)[C@H](Cc2ccc(-c3ccccc3)cc2)NC(=O)[C@H](C(C)C)NC(=O)[C@H](Cc2cccc(Cl)c2)NC(=O)[C@H](CC(=O)O)NC(=O)[C@H](Cc2ccc(OCC(=O)O)cc2)NC(=O)[C@H](Cc2ccncc2)NC(=O)CSC[C@@H](C(=O)N[C@@H](C)C(N)=O)NC(=O)[C@H]([C@@H](C)O)NC(=O)[C@H](C(C)C)NC(=O)[C@H](CC2CCCCC2)NC(=O)[C@H](CCN)NC1=O [Compound 1491]
11.7 | Cc1cccc(C[C@@H]2NC(=O)[C@H](CC(=O)O)NC(=O)[C@H](Cc3ccc(C(=O)O)cc3)NC(=O)[C@H](Cc3ccncc3)NC(=O)CSC[C@@H](C(=O)N[C@@H](CO)C(N)=O)NC(=O)[C@H](CO)NC(=O)[C@H](C(C)C)NC(=O)[C@H](CC3CCCCC3)NC(=O)[C@H](CCN)NC(=O)[C@@H](CC(C)C)NC(=O)[C@H](CCCN)NC(=O)[C@H](Cc3ccc(OCC(=O)O)cc3)NC(=O)[C@H](Cc3ccc(-c4ccccc4)cc3)NC(=O)[C@H](Cc3ccc(OCC(=O)O)cc3)NC2=O)c1 [Compound 2295] ({CH2CO}-[4Pal][Phe(4-COOH)]D[Phe(3-Me)]Y(Carboxymethyl)[Bip]Y(Carboxymethyl)[Orn][dL][Dab][Cha]VSCS-NH2; thioether N-14)
